Measured values: ChEMBL document CHEMBL5370549, “Optimization and evaluation of pyridinyl vinyl sulfones as Nrf2 activator for the antioxidant and anti-inflammatory effects” (Eur J Med Chem, 2023)
pEC50: −log10 of the molar value.

Tests used:
CYP3A4 = CYP3A4 (Homo sapiens, UniProt P08684); test: Inhibition of CYP3A4 (unknown origin) assessed as enzyme activity at 10 uM relative to control; type: ADME; design: scale not given: the % may be the effect or the level left; details: read-out: Activity
[1] = Metabolic stability of the compound in rat plasma assessed as parent compound remaining measured after 30 mins; type: ADME, cell-free; details: read-out: Stability
CYP1A2 = molecular target: T1, CYP1A2 (Homo sapiens, UniProt P05177); test: Inhibition of CYP1A2 (unknown origin) assessed as enzyme activity at 10 uM relative to control; type: ADME; design: scale not given: the % may be the effect or the level left; details: read-out: Activity
T1 sequence (P05177 whole entry): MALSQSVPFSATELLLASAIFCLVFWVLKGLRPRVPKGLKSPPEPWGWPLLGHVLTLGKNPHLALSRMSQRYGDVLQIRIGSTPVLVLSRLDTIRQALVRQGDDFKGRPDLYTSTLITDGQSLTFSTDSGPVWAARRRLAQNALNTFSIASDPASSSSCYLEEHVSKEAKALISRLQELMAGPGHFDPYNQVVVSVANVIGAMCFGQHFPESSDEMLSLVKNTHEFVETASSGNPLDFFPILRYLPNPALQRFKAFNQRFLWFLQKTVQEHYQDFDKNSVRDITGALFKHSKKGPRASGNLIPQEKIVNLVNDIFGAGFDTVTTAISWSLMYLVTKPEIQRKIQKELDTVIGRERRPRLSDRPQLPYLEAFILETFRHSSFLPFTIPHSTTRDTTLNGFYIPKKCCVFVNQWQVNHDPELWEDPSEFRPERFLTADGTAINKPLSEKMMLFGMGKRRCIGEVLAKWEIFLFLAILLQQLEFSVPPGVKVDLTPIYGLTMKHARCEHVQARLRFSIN

[2] = Metabolic stability of the compound in human liver microsomes assessed as parent compound remaining measured after 30 mins; type: ADME, Microsome; details: read-out: Stability
[3] = molecular target: T2, Nuclear factor erythroid 2-related factor 2 (Homo sapiens, UniProt Q16236); test: Activation of Nrf2 in human U2OS cells co-expressing Keap1 assessed as induction of Nrf2 nuclear translocation incubated for 6 hrs by PathHunter chemiluminescence based analysis; type: cell-based
T2 sequence (Q16236 whole entry): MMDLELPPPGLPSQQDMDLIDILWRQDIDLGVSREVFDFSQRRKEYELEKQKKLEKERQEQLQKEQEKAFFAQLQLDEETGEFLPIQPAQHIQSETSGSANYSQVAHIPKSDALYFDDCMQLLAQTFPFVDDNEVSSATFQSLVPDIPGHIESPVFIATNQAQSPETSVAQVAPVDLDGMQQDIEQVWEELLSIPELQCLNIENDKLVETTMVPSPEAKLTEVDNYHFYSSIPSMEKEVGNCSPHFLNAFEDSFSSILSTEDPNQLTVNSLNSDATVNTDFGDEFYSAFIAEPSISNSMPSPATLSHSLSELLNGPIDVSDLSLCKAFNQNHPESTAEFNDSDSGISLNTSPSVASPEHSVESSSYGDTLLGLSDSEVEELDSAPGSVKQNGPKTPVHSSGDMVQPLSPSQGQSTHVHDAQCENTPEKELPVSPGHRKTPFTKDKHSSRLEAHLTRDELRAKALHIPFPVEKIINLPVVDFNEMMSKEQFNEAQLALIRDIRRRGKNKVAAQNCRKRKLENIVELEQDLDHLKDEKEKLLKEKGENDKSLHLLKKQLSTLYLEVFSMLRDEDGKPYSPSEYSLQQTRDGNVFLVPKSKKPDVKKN

CYP2C9 = CYP2C9 (Homo sapiens, UniProt P11712); test: Inhibition of CYP2C9 (unknown origin) assessed as enzyme activity at 10 uM relative to control; type: ADME; design: scale not given: the % may be the effect or the level left; details: read-out: Activity
[4] = Metabolic stability of the compound in mouse liver microsomes assessed as parent compound remaining measured after 30 mins; type: ADME, Microsome; details: read-out: Stability
CYP2D6 = CYP2D6 (Homo sapiens, UniProt P10635); test: Inhibition of CYP2D6 (unknown origin) assessed as enzyme activity at 10 uM relative to control; type: ADME; design: scale not given: the % may be the effect or the level left; details: read-out: Activity
CYP2C19 = CYP2C19 (Homo sapiens, UniProt P33261); test: Inhibition of CYP2C19 (unknown origin) assessed as enzyme activity at 10 uM relative to control; type: ADME; design: scale not given: the % may be the effect or the level left; details: read-out: Activity
[5] = Metabolic stability of the compound in human plasma assessed as parent compound remaining measured after 30 mins; type: ADME, cell-free; details: read-out: Stability

Sequence of CYP2C9 (P11712 whole entry): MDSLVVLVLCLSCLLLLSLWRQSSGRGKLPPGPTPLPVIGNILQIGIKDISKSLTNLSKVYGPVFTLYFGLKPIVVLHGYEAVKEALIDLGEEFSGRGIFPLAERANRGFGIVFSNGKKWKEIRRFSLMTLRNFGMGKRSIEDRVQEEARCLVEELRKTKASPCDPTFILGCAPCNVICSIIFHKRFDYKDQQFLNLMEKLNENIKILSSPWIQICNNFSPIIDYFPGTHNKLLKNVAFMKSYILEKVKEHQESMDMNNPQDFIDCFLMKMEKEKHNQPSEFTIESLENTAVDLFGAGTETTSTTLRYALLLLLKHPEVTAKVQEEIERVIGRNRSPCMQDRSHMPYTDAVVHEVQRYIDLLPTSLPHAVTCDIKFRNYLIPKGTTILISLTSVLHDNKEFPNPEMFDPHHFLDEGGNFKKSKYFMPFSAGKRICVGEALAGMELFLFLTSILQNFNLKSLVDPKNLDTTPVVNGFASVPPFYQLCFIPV
Sequence of CYP2C19 (P33261 whole entry): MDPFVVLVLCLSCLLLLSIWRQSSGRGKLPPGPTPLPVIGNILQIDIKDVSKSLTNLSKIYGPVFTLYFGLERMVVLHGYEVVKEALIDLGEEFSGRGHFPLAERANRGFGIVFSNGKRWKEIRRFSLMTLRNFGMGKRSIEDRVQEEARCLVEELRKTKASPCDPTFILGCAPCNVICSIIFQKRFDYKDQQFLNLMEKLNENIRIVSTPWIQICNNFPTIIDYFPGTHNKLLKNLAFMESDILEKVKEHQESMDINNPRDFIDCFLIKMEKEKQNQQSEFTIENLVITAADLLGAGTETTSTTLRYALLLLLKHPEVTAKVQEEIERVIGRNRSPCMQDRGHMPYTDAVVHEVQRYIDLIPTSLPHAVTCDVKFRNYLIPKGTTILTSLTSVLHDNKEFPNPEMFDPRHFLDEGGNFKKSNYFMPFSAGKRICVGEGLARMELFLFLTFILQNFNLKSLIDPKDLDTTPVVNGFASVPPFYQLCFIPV
Sequence of CYP3A4 (P08684 whole entry): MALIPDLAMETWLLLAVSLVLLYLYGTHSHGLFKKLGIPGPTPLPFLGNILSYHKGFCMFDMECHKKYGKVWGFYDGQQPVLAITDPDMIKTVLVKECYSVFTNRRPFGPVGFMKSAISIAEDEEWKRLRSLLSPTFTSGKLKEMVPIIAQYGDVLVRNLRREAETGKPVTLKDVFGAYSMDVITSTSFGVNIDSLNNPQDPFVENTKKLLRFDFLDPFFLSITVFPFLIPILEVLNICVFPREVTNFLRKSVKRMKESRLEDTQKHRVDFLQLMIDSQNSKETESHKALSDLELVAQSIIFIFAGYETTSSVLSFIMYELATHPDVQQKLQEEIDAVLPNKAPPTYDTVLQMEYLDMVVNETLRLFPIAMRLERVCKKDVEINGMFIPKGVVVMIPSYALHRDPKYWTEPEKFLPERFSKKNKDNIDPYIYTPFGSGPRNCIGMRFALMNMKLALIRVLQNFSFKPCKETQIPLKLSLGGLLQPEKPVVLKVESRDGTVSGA
Sequence of CYP2D6 (P10635 whole entry): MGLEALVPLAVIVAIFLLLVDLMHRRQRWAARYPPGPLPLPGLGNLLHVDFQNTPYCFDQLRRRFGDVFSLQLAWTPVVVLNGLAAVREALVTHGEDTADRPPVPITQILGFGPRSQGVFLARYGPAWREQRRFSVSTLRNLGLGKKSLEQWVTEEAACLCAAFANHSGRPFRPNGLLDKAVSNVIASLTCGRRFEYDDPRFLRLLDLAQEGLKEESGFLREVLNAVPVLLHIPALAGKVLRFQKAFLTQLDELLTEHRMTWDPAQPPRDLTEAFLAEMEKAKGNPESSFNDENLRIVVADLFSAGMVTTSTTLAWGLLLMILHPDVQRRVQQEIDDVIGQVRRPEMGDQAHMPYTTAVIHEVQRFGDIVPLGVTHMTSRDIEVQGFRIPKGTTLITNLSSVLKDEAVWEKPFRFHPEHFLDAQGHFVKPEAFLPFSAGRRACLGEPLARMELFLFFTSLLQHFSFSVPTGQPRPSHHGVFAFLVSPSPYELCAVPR

| activity at 10 µM (CYP3A4) [%] | remaining at 0.5 h [1] [%] | activity at 10 µM (CYP1A2) [%] | remaining at 0.5 h [2] [%] | pEC50 [3] | activity at 10 µM (CYP2C9) [%] | remaining at 0.5 h [4] [%] | activity at 10 µM (CYP2D6) [%] | activity at 10 µM (CYP2C19) [%] | remaining at 0.5 h [5] [%] | SMILES |
| --- | --- | --- | --- | --- | --- | --- | --- | --- | --- | --- |
| 28 | 98.9 | 6.73 | 13.8 | 6.64 | > 99 | 4.4 | 97.6 | 7.7 | > 99 | COc1cccc(S(=O)(=O)/C=C/c2ccccc2Cl)n1 |
| 88.9 | 91.9 | 61.1 | 57.2 | 6.56 | > 99 | 60.1 | > 99 | 21.7 | 96.2 | COc1ccc(S(=O)(=O)/C=C/c2ncccc2C(F)(F)F)nc1 |
| 32.5 | 82.7 | 18.2 | 38.8 | 6.71 | 81.9 | 4 | > 99 | 15.1 | 94.2 | COc1cccc(S(=O)(=O)/C=C/c2ncccc2C(F)(F)F)n1 |
| 30.6 | 91.8 | 4.9 | 19.3 | 6.50 | 71 | 6 | 91.7 | 13.2 | 98.4 | COc1cccc(S(=O)(=O)/C=C/c2ccccc2C(F)(F)F)n1 |
| 72.6 | 91.5 | 74.2 | 48.1 | 7.48 | > 99 | 44 | > 99 | 29 | 96.7 | COc1ccc(S(=O)(=O)/C=C/c2ncccc2Cl)nc1 |
| 58 | 94.7 | 27.8 | 31.7 | 6.61 | > 99 | 2.7 | 100 | 3.7 | 99 | COc1ccc(S(=O)(=O)/C=C/c2ccccc2C(F)(F)F)nc1 |
| 91.5 | 91.9 | 81 | 76.6 | 7.31 | > 99 | 61.4 | 99.8 | 30.2 | 99 | COc1ccnc(S(=O)(=O)/C=C/c2cccnc2Cl)c1 |
| 53 | 91.3 | 31 | 77.6 | 7.12 | > 99 | 59.2 | > 99 | 15 | 98.5 | COc1ncccc1S(=O)(=O)/C=C/c1ncccc1Cl |
| 87.1 | > 99 | 71.8 | 83.1 | 7.12 | 59.7 | 34.4 | 93.4 | 60.7 | 92.4 | COc1cccnc1S(=O)(=O)/C=C/c1ccccc1Cl |
| 36.8 | 83 | 23.1 | 49.4 | 7.03 | > 99 | 9.6 | 96 | 12.5 | > 99 | COc1cccc(S(=O)(=O)/C=C/c2ncccc2Cl)n1 |
| 38.2 | 94.7 | 63.4 | 54.6 | 6.08 | > 99 | 8.7 | 97.2 | 7 | > 99 | COc1ccnc(S(=O)(=O)/C=C/c2cccc(Cl)c2)c1 |
| 70.9 | 65.9 | 69.9 | 61.7 | 7.52 | 76.1 | 36.8 | 100 | 27.6 | 95 | COc1ccnc(S(=O)(=O)/C=C/c2ncccc2Cl)c1 |
| 95.1 | 84.8 | 33.3 | 70.3 | 5.88 | > 99 | 67.6 | 96.3 | 10.7 | 91.1 | COc1ccnc(S(=O)(=O)/C=C/c2ccc(Cl)cn2)c1 |
